According to article PMC11212140, “Molecular Bidents with Two Electrophilic Warheads as a New Pharmacological Modality” (ACS Central Science, 2024):
Like-named read-outs stand apart in the source and are kept apart here.

Columns and labels:
JAK1 domain1 = system: T1, JAK1 domain1; assay: KiNativ profiling in H3255 cells; type: cell-based, human; conditions: 2.5 µM; Activation Loop; QLASALSYLEDKDLVHGNVCTKNLLLAR
T1 construct: JAK1 domain1; purchased ActivX Biosciences (KiNativ)

PKD2 = system: T2, PKD2; assay: KiNativ profiling in H3255 cells; type: cell-based, human; conditions: 2.5 µM; Lys1; DVAVKVIDK
T2 construct: purchased ActivX Biosciences (KiNativ)
Protocol: (§1) Cellular target engagement assays […]
(§2) H3255 cells were plated with 6.5x10^6 per condition in fresh media in 15 cm plates and treated the 80% confluency for 2 hours with DMSO or 2.5 μM of ZNL-0056. To harvest cells, plates were washed 3 times with cold PBS, then collected by scraping into 4 mL of cold PBS containing protease and phosphatase inhibitors. Cells were pelleted by centrifugation at 1350 g at 4 ℃ for 5 minutes and immediately frozen in liquid nitrogen. The frozen samples were sent to ActivX Biosciences (La Jolla, CA) for the remainder of the KiNativ profiling experiment4. […]

PCTAIRE1 = system: T3, PCTAIRE1; assay: KiNativ profiling in H3255 cells; type: cell-based, human; conditions: 2.5 µM; Lys1; SKLTDNLVALKEIR
T3 construct: purchased ActivX Biosciences (KiNativ)
Protocol: as §1, §2

PAN3 = system: T4, PAN3; assay: KiNativ profiling in H3255 cells; type: cell-based, human; conditions: 2.5 µM, ATP
T4 construct: purchased ActivX Biosciences (KiNativ)
Protocol: as §1, §2

ATR = system: T5, ATR; assay: KiNativ profiling in H3255 cells; type: cell-based, human; conditions: 2.5 µM; ATP; FYIMMCKPK
T5 construct: purchased ActivX Biosciences (KiNativ)
Protocol: as §1, §2

CDK10 = system: T6, CDK10; assay: KiNativ profiling in H3255 cells; type: cell-based, human; conditions: 2.5 µM; Lys2; DLKVSNLLMTDK
T6 construct: purchased ActivX Biosciences (KiNativ)
Protocol: as §1, §2

[1] = system: MSK1 domain1, MSK2 domain1; assay: KiNativ profiling in H3255 cells; type: cell-based, human; conditions: 2.5 µM; ATP Loop; VLGTGAYGKVFLVR
Protocol: as §1, §2

SGK3 = system: T7, SGK3; assay: KiNativ profiling in H3255 cells; type: cell-based, human; conditions: 2.5 µM; Lys1; FYAVKVLQK
T7 construct: purchased ActivX Biosciences (KiNativ)
Protocol: as §1, §2

MARK3 = system: T8, MARK3; assay: KiNativ profiling in H3255 cells; type: cell-based, human; conditions: 2.5 µM; Lys1; EVAIKIIDKTQLNPTSLQK
T8 construct: purchased ActivX Biosciences (KiNativ)
Protocol: as §1, §2

NuaK2 = system: T9, NuaK2; assay: KiNativ profiling in H3255 cells; type: cell-based, human; conditions: 2.5 µM; Lys1; LVAIKSIR
T9 construct: purchased ActivX Biosciences (KiNativ)
Protocol: as §1, §2

SRPK1, SRPK2 = assay: KiNativ profiling in H3255 cells; type: cell-based, human; conditions: 2.5 µM; Lys1; FVAMKVVK
Protocol: as §1, §2

[2] = system: EGFR^L858R/C797S Ba/F3 cells; assay: Antiproliferation assay (CellTiter-Glo); type: cell-based
From the text: (§3) (1 picture or pasted object on this page, not shown here)
protease and phosphatase inhibitors.
Protein expression and purification

NDR2 = system: T10, NDR2; assay: KiNativ profiling in H3255 cells; type: cell-based, human; conditions: 2.5 µM
T10 construct: purchased ActivX Biosciences (KiNativ)
Procedure, shortened: (§4)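 Compound ZNL-0056, 2.5 μM, 2 h, in H3255 cells near 80% confluency; DMSO-treated cells served as reference. KiNativ performed externally on liquid-nitrogen-frozen pellets.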

PITSLRE = system: T11, PITSLRE; assay: KiNativ profiling in H3255 cells; type: cell-based, human; conditions: 2.5 µM; Lys2; DLKTSNLLLSHAGILK
T11 construct: purchased ActivX Biosciences (KiNativ)
Procedure, shortened: as §4

PKCa, PKCg = assay: KiNativ profiling in H3255 cells; type: cell-based, human; conditions: 2.5 µM; Other; NLIPMDPNGLSDPYVKLK
Procedure, shortened: as §4

HER2/ErbB2 = system: T12, HER2/ErbB2; assay: KiNativ profiling in H3255 cells; type: cell-based, human; conditions: 2.5 µM
T12 construct: purchased ActivX Biosciences (KiNativ)
Procedure, shortened: as §4

EGFR-L858R = system: T13, EGFR-L858R; assay: KiNativ profiling in H3255 cells; type: cell-based, human; conditions: 2.5 µM; Activation Loop; AKLLGAEEK
T13 construct: purchased ActivX Biosciences (KiNativ)
Procedure, shortened: as §4

BARK1 = system: T14, BARK1; assay: KiNativ profiling in H3255 cells; type: cell-based, human; conditions: 2.5 µM; Lys2; DLKPANILLDEHGHVR
T14 construct: purchased ActivX Biosciences (KiNativ)
Procedure, shortened: as §4

ILK = system: T15, ILK; assay: KiNativ profiling in H3255 cells; type: cell-based, human; conditions: 2.5 µM
T15 construct: purchased ActivX Biosciences (KiNativ)

[3] = Glutathione (GSH) reactivity; type: in vitro ADME; conditions: glutathione (GSH) in buffer; read-out: half-life of conjugation with glutathione (GSH)
Protocol: Table S3. Glutathione (GSH) reactivity of ZNL-0056
*NGSH1440: the abbreviation of no glutathione. No glutathione is added into NGSH sample
(replaced by buffer) during the 24 hour-incubation R2 is the correlation coefficient of the linear
regression for the determination of kinetic constant.
as §3

[4] = Activation Loop, LLDIDETEYHADGGKVPIK
[5] = Protein Kinase Domain, ISMADVKFSFQCPGR

Structure (SMILES)	Inhibition (JAK1 domain1) [%]	Inhibition (PKD2) [%]	Inhibition (PCTAIRE1) [%]	Inhibition (PAN3; IQKSSNFGYITSCYK) [%]	Inhibition (PAN3; VMDPTKILITGK) [%]	Inhibition (ATR) [%]	Inhibition (CDK10) [%]	Inhibition [1] [%]	Inhibition (SGK3) [%]	Inhibition (MARK3) [%]	Inhibition (NuaK2) [%]	Inhibition (SRPK1, SRPK2) [%]	Inhibition (NDR2; Lys1, DTGHIYAMKILR) [%]	Inhibition (NDR2; Lys2, DIKPDNLLLDAK) [%]	Inhibition (PITSLRE) [%]	Inhibition (PKCa, PKCg) [%]	Inhibition (HER2/ErbB2; [4]) [%]	Inhibition (HER2/ErbB2; Lys1, GIWIPDGENVKIPVAIKVLR) [%]	Inhibition (EGFR-L858R) [%]	Inhibition (BARK1) [%]	other results
C=CC(=O)Nc1cc(Nc2nccc(-c3cn(C)c4ccccc34)n2)c(OC)cc1N(C)CCN(C)C [Osimertinib, osimertinib, reference compound]	-25.4	-2.1	-20.8	10.9	3.7	-16.2	40.2	-40.8	2.9	-26.0	-2.3	21.8	-19.7	-0.656	-3.8	-21.6	82.4	89.1	98.2	-15.7	activity loss in cells dependent on EGFR^C797S for growth [2]: 300 fold; Inhibition (ILK; Lys1, WQGNDIVVKVLK): -18.1%; Inhibition (ILK; [5]): 14.1%; half-life [3]: 49 min
C=CC(=O)Nc1cc(C(=O)Nc2nc3cccc(C)c3n2[C@@H]2CCCCN(C(=O)C=C)C2)cs1 [ZNL-0056]	-24.3	10.2	-1.5	-8.7	10.8	18.0	23.6	15.3	10.1	17.8	1.9	-8.1	11.0	3.3	20.7	-17.5	65.9	60.7	97.2	17.8	activity loss in cells dependent on EGFR^C797S for growth ([2]; vs EGFR^L858R Ba/F3): 50 fold; Inhibition (ILK; Lys1, WQGNDIVVKVLK): -6.7%; Inhibition (ILK; [5]): -9.2%; half-life [3]: 36 min
